# Measured values from patent US20230167081A1, “5-AMINO-2-PIPERIDINON-3-YL-1-OXOISOINDOLINE DERIVATIVES FOR DEGRADATION OF IKZF2 DEGRADERS” (President and Fellows of Harvard College, priority 2020, published 2023).
# pIC50: −log10 of the molar value. Entries after “also recorded” stand apart in the source; their conditions may differ. Where two headings read alike, the source gives them in different places.
# How the values were obtained:
# [1] = target: T1, IKZF2 (Homo sapiens, UniProt Q9UKS7); experiment: Western blot, IKZF2 degradation in MOLM13 cells; assay type: cell-based; parameters: endogenous in cells; host or cells: MOLM13
# Procedure: (§1) To determine the selectivity of DEG-7 and DEG-35, blotting was done for other known IMiD neo-substrates (FIG. 1A). DEG-35 degraded casein kinase 1α (CK1α), a known substrate of lenalidomide, as well as the translation termination factor GSPT1, a substrate of the IMiD CC-885, at 25 μM concentrations. To investigate whether DEG-35 could degrade IKZF2 at lower concentrations, MOLM13 cells were treated with a concentration gradient. At the lowest concentration tested (5 nM), IKZF2 and CK1a degraded, while GSPT1 levels were unperturbed.
# Target sequence in this assay (Q9UKS7 whole entry): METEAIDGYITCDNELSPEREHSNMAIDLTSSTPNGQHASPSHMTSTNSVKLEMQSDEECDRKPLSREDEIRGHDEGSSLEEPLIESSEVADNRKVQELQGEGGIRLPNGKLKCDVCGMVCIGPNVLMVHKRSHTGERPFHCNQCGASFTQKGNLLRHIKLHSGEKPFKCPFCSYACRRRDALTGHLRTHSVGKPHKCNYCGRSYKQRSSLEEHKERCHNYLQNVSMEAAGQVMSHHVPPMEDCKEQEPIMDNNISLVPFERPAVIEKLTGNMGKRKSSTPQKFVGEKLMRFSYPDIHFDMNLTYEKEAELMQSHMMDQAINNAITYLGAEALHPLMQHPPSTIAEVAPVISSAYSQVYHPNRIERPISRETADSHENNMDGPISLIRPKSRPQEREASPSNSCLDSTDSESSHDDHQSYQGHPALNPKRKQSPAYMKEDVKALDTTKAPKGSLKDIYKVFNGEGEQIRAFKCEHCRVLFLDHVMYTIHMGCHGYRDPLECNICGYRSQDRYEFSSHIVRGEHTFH
# Target sequence in this assay (Q96SW2 whole entry, further chain): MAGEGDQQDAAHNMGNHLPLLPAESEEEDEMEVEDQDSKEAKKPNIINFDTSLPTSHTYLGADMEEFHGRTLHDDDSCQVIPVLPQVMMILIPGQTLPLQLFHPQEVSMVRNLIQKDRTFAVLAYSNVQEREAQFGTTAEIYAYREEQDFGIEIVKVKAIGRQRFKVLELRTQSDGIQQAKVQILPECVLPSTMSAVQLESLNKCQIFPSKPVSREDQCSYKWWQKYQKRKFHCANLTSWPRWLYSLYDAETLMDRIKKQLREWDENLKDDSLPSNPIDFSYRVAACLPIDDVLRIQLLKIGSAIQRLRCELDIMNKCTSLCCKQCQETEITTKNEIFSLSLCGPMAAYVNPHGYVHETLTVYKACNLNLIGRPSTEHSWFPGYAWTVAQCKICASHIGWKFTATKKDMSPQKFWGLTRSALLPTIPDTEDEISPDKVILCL
# Target sequence in this assay (Q16531 whole entry partner): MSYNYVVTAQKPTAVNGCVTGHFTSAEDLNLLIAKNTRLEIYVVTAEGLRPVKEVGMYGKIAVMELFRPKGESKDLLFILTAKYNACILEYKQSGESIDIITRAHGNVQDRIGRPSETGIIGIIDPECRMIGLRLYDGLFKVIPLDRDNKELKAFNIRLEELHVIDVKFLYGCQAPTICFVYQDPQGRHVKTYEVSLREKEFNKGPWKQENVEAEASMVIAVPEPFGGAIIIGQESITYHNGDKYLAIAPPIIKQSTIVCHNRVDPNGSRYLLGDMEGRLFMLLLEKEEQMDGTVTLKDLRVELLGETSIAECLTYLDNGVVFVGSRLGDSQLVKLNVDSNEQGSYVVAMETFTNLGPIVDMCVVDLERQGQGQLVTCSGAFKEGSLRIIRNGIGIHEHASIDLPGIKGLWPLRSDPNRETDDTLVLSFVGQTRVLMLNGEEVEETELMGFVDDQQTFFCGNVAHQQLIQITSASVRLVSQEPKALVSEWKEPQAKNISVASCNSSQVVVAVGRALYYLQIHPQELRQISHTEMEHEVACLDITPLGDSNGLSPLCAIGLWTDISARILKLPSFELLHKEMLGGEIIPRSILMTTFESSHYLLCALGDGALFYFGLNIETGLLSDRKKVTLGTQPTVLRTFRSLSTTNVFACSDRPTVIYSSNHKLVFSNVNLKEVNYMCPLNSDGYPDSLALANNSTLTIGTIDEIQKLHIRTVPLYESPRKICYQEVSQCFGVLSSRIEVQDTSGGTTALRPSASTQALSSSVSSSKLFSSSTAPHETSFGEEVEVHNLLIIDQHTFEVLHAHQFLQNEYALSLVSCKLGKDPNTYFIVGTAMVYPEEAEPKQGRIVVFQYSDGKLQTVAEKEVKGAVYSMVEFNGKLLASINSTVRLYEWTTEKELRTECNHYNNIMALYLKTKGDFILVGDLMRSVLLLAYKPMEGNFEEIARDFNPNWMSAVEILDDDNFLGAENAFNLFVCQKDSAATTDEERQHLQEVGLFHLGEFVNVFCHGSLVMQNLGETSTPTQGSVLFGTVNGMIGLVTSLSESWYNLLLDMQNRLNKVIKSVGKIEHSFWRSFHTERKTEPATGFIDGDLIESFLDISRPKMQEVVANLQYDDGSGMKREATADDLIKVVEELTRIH
# [2] = tested on: MOLM13 cells; experiment: Differentiation in MOLM13 cells; assay type: cell-based, human
# [3] = tested on: KASUMI; experiment: Cell viability, antiproliferation, apoptosis, differentiation in KASUMI cells; assay type: cell-based
# [4] = tested on: MOLM13 cells; experiment: Apoptosis markers in MOLM13 cells; assay type: cell-based, human
# [5] = tested on: NOMO1; experiment: Cell viability, antiproliferation, apoptosis, differentiation in NOMO1 cells; assay type: cell-based
# [6] = tested on: MOLM13 cells; experiment: MTT cell viability assay in MOLM13 cells; assay type: cell-based, human
# Procedure: The effect of DEG-7 and DEG-35 were evaluated on cell viability in MOLM13 cells.
# [7] = tested on: over 800 cancer cell lines; experiment: PRISM screen against over 800 cancer cell lines; assay type: cell-based; conditions: MOLM13 cell line
# Description: DEG-7 and DEG-35 were submitted to the Broad Institute's PRISM (Profiling Relative Inhibition Simultaneously in Mixtures) screen to be evaluated against over 800 cancer cell lines. The initial screen identified cancer cell lines that were responsive to DEG-7 and DEG-35 treatment. […] Several diffuse large B-cell lymphoma (DLBCL), acute myeloid leukemia (AML), and T-cell acute lymphoblastic leukemia (T-ALL) cell lines responded to DEG-35 in a dose-dependent manner. Of the top ten cell lines that responded to DEG-35 treatment, three were DLBCL cell lines, one was an AML cell line (MOLM13), and one was a T-ALL cell line.
# [8] = target: T2, IKZF1 (Homo sapiens, UniProt Q13422); experiment: Western blot, IKZF1 levels in MOLM13 cells; assay type: cell-based
# T2 construct: endogenous in cells; host or cells: MOLM13
# Description: DEG-37 is also a suitable lead compound for IKZF2 targeted degradation (FIG. 4).
# [9] = target: GSPT1 (Homo sapiens, UniProt P15170+Q96SW2); experiment: Western blot, GSPT1 levels in MOLM13 cells; assay type: cell-based; parameters: endogenous in cells; host or cells: MOLM13
# Procedure: as §1
# [10] = target: T1, IKZF2; conditions: background statement; cited from earlier work
# Target sequence in this assay (Q9UKS7 whole entry): as the sequence (Q9UKS7 whole entry) above
# Target sequence in this assay (Q96SW2 whole entry, further chain): as the sequence (Q96SW2 whole entry, further chain) above
# GSPT1, sequence (P15170 whole entry): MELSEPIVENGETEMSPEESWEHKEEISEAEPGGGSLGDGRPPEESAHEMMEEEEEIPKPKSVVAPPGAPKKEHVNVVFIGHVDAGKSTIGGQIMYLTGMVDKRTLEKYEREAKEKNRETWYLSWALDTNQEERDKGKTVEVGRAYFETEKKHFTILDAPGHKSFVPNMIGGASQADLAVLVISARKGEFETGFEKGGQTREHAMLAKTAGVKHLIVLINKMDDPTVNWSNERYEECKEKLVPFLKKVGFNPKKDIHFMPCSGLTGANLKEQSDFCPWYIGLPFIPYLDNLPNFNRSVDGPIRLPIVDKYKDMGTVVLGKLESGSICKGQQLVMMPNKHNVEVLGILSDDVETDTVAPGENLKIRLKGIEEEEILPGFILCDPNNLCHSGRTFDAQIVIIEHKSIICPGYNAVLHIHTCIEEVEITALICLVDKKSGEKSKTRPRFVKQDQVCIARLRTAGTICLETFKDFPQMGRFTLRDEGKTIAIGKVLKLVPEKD
# GSPT1, sequence (Q96SW2 whole entry): as the sequence (Q96SW2 whole entry, further chain) above
# GSPT1, sequence (Q16531 whole entry partner): as the sequence (Q16531 whole entry partner) above
# T2 sequence (Q96SW2 whole entry partner): as the sequence (Q96SW2 whole entry, further chain) above
# T2 sequence (Q16531 whole entry partner): as the sequence (Q16531 whole entry partner) above
# T2 sequence (Q13422 whole entry): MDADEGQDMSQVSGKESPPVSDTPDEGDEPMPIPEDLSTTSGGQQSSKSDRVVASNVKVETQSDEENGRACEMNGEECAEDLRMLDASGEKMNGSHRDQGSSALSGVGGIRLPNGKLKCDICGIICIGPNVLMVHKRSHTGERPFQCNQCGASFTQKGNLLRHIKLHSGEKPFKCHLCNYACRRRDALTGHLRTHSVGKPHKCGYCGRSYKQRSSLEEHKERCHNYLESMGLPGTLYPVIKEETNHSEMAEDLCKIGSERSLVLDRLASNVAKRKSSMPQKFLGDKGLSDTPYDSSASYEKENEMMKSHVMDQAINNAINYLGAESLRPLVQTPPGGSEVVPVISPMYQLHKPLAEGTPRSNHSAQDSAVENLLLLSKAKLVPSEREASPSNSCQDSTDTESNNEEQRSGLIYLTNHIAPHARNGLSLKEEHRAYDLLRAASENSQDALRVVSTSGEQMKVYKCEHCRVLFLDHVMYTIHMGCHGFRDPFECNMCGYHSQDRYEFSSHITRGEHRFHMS
compound,measurement,setting,value
"COc1ccc2cc(CNc3ccc4c(c3)CN(C3CCC(=O)NC3=O)C4=O)ccc2c1 (stereo not drawn) [DEG-7, 3-(5-(((6-methoxynaphthalen-2-yl)methyl)amino)-1-oxoisoindolin-2-yl)piperidine-2,6-dione]",IKZF2 degradation,"[1]; analog screening, concentration not given",robust IKZF2 degradation; also recorded: potent degraders of IKZF2
same,induction of differentiation,[2],induced differentiation; also recorded: more efficient at inducing differentiation than DEG-35
same,"effect on cell viability, antiproliferation, apoptosis, or differentiation",[3],no observed effect
same,induction of apoptosis markers,[4],induced apoptosis markers
same,"effect on cell viability, antiproliferation, apoptosis, or differentiation",[5],no observed effect
same,pIC50,[6]; MOLM13 cells,5.35
same,sensitivity of MOLM13 in PRISM screen,[7],sensitive
"O=C1CCC(N2Cc3cc(NCc4ccc5oc6ccccc6c5c4)ccc3C2=O)C(=O)N1 (stereo not drawn) [DEG-37, 3-(5-((dibenzo[b,d]furan-2-ylmethyl)amino)-1-oxoisoindolin-2-yl)piperidine-2,6-dione]",IKZF2 degradation,[1]; 25 μM,selectively degrade IKZF2; also recorded: degrades IKZF2
same,antiproliferative activity (in words),[6]; MOLM13 / AML cells,milder antiproliferative effects; also recorded: possesses antiproliferative effects
same,effect on IKZF1 levels,[8],minimally effect
same,effect on GSPT1 levels,[9],minimally effect
Nc1cccc2c1CN(C1CCC(=O)NC1=O)C2=O (stereo not drawn) [lenalidomide],IKZF2 degradation,[10],not degraders of IKZF2
